Assay results: patent US7892789B2, “Method of increasing cell permeability to trehalose by recombinantly producing a trehalose transporter” (priority 2007, dated 2011)

Key:
[1] = target: T1, TRET1 (Polypedilum vanderplanki, UniProt A5LGM7); assay type: cell-based
T1 construct: ORF of either Tret1, DmTret1, AmTret1, AgTret1 or BmTret1 cDNA was amplified with PCR; expressed in transfected cells; host or cells: Xenopus laevis oocytes injected with cRNA
T1 sequence (A5LGM7 1-504): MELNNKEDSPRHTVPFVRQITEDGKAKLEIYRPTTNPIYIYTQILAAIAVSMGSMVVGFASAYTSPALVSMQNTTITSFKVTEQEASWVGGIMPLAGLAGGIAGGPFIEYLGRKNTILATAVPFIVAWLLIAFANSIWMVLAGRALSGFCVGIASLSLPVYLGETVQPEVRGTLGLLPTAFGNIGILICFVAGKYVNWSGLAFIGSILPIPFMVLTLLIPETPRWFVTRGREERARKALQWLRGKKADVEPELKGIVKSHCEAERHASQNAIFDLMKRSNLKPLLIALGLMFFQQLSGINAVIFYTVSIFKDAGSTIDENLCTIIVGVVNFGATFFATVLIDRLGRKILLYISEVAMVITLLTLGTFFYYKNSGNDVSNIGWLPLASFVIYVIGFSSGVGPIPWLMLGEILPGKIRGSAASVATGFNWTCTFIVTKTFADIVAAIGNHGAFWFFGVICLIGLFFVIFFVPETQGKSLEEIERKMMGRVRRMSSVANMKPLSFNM
Text: (§1) The capped RNA (cRNA) expression vector pTRET1-XbG-ev1 series was constructed as follows: ORF of either Tret1, DmTret1, AmTret1, AgTret1 or BmTret1 cDNA was amplified with PCR using specific primers containing Bgl II site at the 5′-end on each primer, respectively. The PCR products were digested with the restriction enzymes, and cloned into the site of Bgl II in pXbG-ev1 (Preston, G. M., et al. (1992) Science 256, 385-387). ORF of hGLUT1 cDNA was obtained by digestion of pSPMM1 with BamH I, and then subcloned into the site of Bgl II in pXbG-2. Template DNAs for cRNA synthesis were amplified from the corresponding cRNA expression vectors with a high fidelity DNA polymerase, KOD—Plus—, (TOYOBO). The cRNAs were synthesized with mMESSAGE mMACHINE T7 Kit (Ambion), and then purified with RNeasy MiniElute Cleanup kit (Qiagen).
Stage V or VI oocytes were extirpated from X. laevis females, and digested ovarian lobes with 0.2% (w/v) collagenase, type II (Sigma-Aldrich) in Ca^2+-free modified Barth's saline (MBS; 88.0 mM NaCl, 1.0 mM KCl, 2.4 mM NaHCO3, 15.0 mM Tris-Cl, 0.82 mM MgSO4, […] penicillin and streptomycin, pH7.6) at 15° C. for 3 h. The oocytes were microinjected with 40 nl of either 1 ng/nl of the TRET1::AcGFP1 or AcGFP1 cRNA, or nuclease-free water (Invitrogen) as a negative control. In order to express TRET1, the oocytes were incubated in MBS (containing 0.41 mM CaCl2) for 3-4 days after injection at 15° C. Fluorescence images of the oocytes injected with the cRNA were observed and analyzed with a fluorescence microscope BZ-8000 (KEYENCE).
(§2) All uptake assays for zero-trans trehalose and/or other sugars were performed using Xenopus oocytes expressing TRET1 at 15° C. in MBS containing appropriate concentrations of sugars. Sugar concentrations were determined using HPLC (Watanabe, M., et al. (2002) J Exp Biol 205, 2799-2802). All assays were carried out in triplicate.
Xenopus oocytes expressing either TRET1 or hGLUT1 were incubated in 105 mM of various sugars for 3 h. Tre: trehalose; Mal: maltose; Suc: sucrose; Lac: lactose; MAG: methyl-a-glucopyranoside; and 2-DOG: 2-deoxy-glucose (FIG. 3B).
In General, transporters contain two sub-classes: facilitated transporters and secondary active transporters. Activities of secondary active transporters are dependent on the electrochemical membrane potential resulting from the distribution of ions such as H^+. For example, proton-dependent MAL11/AGT1 can act only under acidic extracellular conditions (Stambuk, B. U., et al. (1996) Eur J Biochem 237, 876-881). On the other hand, facilitated transporters function independently of the electrochemical membrane potential. Xenopus oocytes expressing TRET1 were incubated in 105 mM trehalose at pH 4.2 and 7.6 for 3 h.
Xenopus oocytes expressing TRET1 were incubated in 105 mM trehalose with either control buffer (Mock; 0.1% acetone), or buffer containing various concentrations of nigericin (Na^+, K^+-ionophore), valinomycin (K^+-ionophore) or CCCP (H^+-ionophore, uncoupler) for 3 h.
In general, facilitated transporters enable their substrates to flow across membranes down concentration gradients. Xenopus oocytes expressing TRET1 were first incubated in 105 mM trehalose for 3 h, and then transferred into trehalose-free buffer and trehalose content was examined over time.
Xenopus oocytes expressing TRET1 were incubated in various concentrations of trehalose for 15 min. Uptake data were fitted to the Michaelis-Menten and Eadie-Hofstee (inset of FIG. 9) equations.

[2] = Degradation of trehalose in extracts of mammalian cells; assay type: in vitro ADME; conditions: extracts of CHO-K1, HuH-7, NIH3T3 cells, 3 h at 37° C., data not shown
[3] = target: T2, BmTRET1 (Bombyx mori, UniProt A9ZSY3); test: Trehalose uptake in Xenopus oocytes expressing BmTRET1; assay type: cell-based; conditions: 105 mM of trehalose, 3 h
T2 construct: ORF of either Tret1, DmTret1, AmTret1, AgTret1 or BmTret1 cDNA was amplified with PCR; expressed in transfected cells; host or cells: Xenopus laevis oocytes injected with cRNA
T2 sequence (A9ZSY3 1-505): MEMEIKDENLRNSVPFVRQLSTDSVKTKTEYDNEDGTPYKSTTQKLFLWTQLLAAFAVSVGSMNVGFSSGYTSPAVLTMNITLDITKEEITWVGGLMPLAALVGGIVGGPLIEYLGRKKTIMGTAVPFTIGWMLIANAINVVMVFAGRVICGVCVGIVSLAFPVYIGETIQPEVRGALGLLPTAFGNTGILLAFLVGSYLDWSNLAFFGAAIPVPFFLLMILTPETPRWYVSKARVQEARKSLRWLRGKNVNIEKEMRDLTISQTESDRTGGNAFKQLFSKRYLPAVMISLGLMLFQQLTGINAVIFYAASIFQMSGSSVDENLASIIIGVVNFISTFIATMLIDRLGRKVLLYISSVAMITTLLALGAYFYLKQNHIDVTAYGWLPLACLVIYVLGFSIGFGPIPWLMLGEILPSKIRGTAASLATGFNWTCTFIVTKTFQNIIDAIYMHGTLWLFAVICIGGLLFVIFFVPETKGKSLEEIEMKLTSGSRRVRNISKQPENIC
Text: as §1
as §2, with “triplicate. […] (data not shown).” for “triplicate.”
Likewise, whether these Tret1-orthologs have trehalose transport activity was examined using the Xenopus oocyte expression system incubated in 105 mM of trehalose for 3 h.

## OC[C@H]1O[C@H](O[C@H]2O[C@H](CO)[C@@H](O)[C@H](O)[C@H]2O)[C@H](O)[C@@H](O)[C@@H]1O [trehalose]
[1]; 105 mM trehalose
  time course of trehalose uptake into oocytes expressing TRET1: increased linearly for at least 6 h
[1]; 105 mM trehalose 3 h, then trehalose-free buffer
  direction of trehalose transport after reversal of concentration gradient: shifted from an inward to outward direction
[1]; 105 mM trehalose, pH 4.2 and 7.6, 3 h
  pH-dependency of TRET1 trehalose transport: acted over a wide extracellular pH range
[1]; Xenopus oocytes expressing TRET1
  Vmax of TRET1 for trehalose: 7.84±0.77 nmol/15 min/oocyte
[2]
  degradation of trehalose: No degradation
[3]
  trehalose transport activity: showed trehalose transport activity
